Key:
Assay in all cases: relative viability (nuclei count vs DMSO), 5 days (fraction); higher = more cells survive
Palbociclib + OSI-027 = compound: CC(=O)c1c(C)c2cnc(Nc3ccc(N4CCNCC4)cn3)nc2n(C2CCCC2)c1=O [Palbociclib] + COc1cccc2cc(-c3nc([C@H]4CC[C@H](C(=O)O)CC4)n4ncnc(N)c34)[nH]c12 [OSI-027] (partner 0.5 µM)
Procedure, shortened: (§1)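 One day after seeding in 1536-well plates, lung cancer cell lines were dosed by pin tool. Dosing was either single-drug or a fixed anchor-drug dose plus five library-drug doses (not always all listed) in √10 steps. After 5 days, nuclei were stained in one fix-and-stain step and counted on 4× images, and relative viability is the nuclei count of treated wells over that of vehicle wells, given as the median of duplicate plates.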

Palbociclib + Olaparib = compound: CC(=O)c1c(C)c2cnc(Nc3ccc(N4CCNCC4)cn3)nc2n(C2CCCC2)c1=O [Palbociclib] + O=C(c1cc(Cc2n[nH]c(=O)c3ccccc23)ccc1F)N1CCN(C(=O)C2CC2)CC1 [Olaparib] (partner 8 µM)
Procedure, shortened: as §1

Palbociclib + Bortezomib = compound: CC(=O)c1c(C)c2cnc(Nc3ccc(N4CCNCC4)cn3)nc2n(C2CCCC2)c1=O [Palbociclib] + CC(C)C[C@H](NC(=O)[C@H](Cc1ccccc1)NC(=O)c1cnccn1)B(O)O [Bortezomib] (partner 0.002 µM)
Procedure, shortened: as §1

Palbociclib + Crizotinib = compound: CC(=O)c1c(C)c2cnc(Nc3ccc(N4CCNCC4)cn3)nc2n(C2CCCC2)c1=O [Palbociclib] + C[C@@H](Oc1cc(-c2cnn(C3CCNCC3)c2)cnc1N)c1c(Cl)ccc(F)c1Cl [Crizotinib] (partner 1 µM)
Procedure, shortened: as §1

| Cell Line | relative viability (Palbociclib + OSI-027; first compound 0.01 µM) | relative viability (Palbociclib + OSI-027; first compound 0.03162 µM) | relative viability (Palbociclib + OSI-027; first compound 0.1 µM) | relative viability (Palbociclib + OSI-027; first compound 0.3162 µM) | relative viability (Palbociclib + OSI-027; first compound 1 µM) | relative viability (Palbociclib + Olaparib; first compound 0.01 µM) | relative viability (Palbociclib + Olaparib; first compound 0.03162 µM) | relative viability (Palbociclib + Olaparib; first compound 0.1 µM) | relative viability (Palbociclib + Olaparib; first compound 0.3162 µM) | relative viability (Palbociclib + Olaparib; first compound 1 µM) | relative viability (Palbociclib + Bortezomib; first compound 0.01 µM) | relative viability (Palbociclib + Bortezomib; first compound 0.03162 µM) | relative viability (Palbociclib + Bortezomib; first compound 0.1 µM) | relative viability (Palbociclib + Bortezomib; first compound 0.3162 µM) | relative viability (Palbociclib + Bortezomib; first compound 1 µM) | relative viability (Palbociclib + Crizotinib; first compound 0.01 µM) | relative viability (Palbociclib + Crizotinib; first compound 0.03162 µM) | relative viability (Palbociclib + Crizotinib; first compound 0.1 µM) | relative viability (Palbociclib + Crizotinib; first compound 0.3162 µM) | relative viability (Palbociclib + Crizotinib; first compound 1 µM) |
| --- | --- | --- | --- | --- | --- | --- | --- | --- | --- | --- | --- | --- | --- | --- | --- | --- | --- | --- | --- | --- |
| NCI-H838 | 0.318 | 0.348 | 0.308 | 0.317 | 0.185 | 0.812 | 0.64 | 0.605 | 0.46 | 0.263 | 0.725 | 0.8 | 0.67 | 0.694 | 0.275 | 0.795 | 0.808 | 0.645 | 0.551 | 0.413 |
| NCI-H727 | 0.468 | 0.477 | 0.367 | 0.494 | 0.438 | 0.738 | 0.728 | 0.699 | 0.728 | 0.568 | 0.963 | 0.649 | 0.491 | 0.465 | 0.469 | 0.78 | 0.642 | 0.45 | 0.41 | 0.404 |
| ABC-1 | 0.483 | 0.443 | 0.436 | 0.351 | 0.301 | 0.89 | 0.757 | 0.602 | 1.04 | 0.898 | 0.323 | 0.32 | 0.232 | 0.292 | 0.394 | 0.935 | 1.16 | 0.93 | 0.832 | 0.591 |
| RERF-LC-KJ | 0.541 | 0.583 | 0.508 | 0.598 | 0.64 | 0.896 | 0.83 | 0.919 | 0.942 | 0.821 | 1.17 | 1.12 | 1.11 | 1.04 | 1.15 | 0.909 | 0.82 | 0.82 | 0.88 | 0.87 |
| NCI-H1437 | 0.747 | 0.734 | 0.711 | 0.65 | 0.291 | 0.64 | 0.599 | 0.564 | 0.489 | 0.369 | 0.525 | 0.533 | 0.442 | 0.408 | 0.318 | 1.05 | 0.855 | 0.807 | 0.782 | 0.506 |
| SK-LU-1 | 0.375 | 0.316 | 0.231 | 0.241 | 0.202 | 0.51 | 0.425 | 0.428 | 0.371 | 0.263 | 1.47 |  | 0.92 | 0.912 | 0.58 | 0.908 | 0.738 | 0.624 | 0.67 | 0.471 |
| ChaGo-K-1 | 0.594 | 0.396 | 0.661 | 0.563 | 0.594 | 0.423 |  | 0.437 | 0.467 | 0.444 | 1.11 | 0.828 | 1.02 | 1.14 | 1.11 | 0.961 | 0.639 | 1.07 | 1.12 | 1.13 |
| A-427 | 0.467 | 0.271 | 0.282 | 0.33 | 0.308 | 0.737 | 0.626 | 0.514 | 0.514 | 0.391 | 0.933 | 0.877 | 0.827 | 0.832 | 0.546 | 0.963 | 0.83 | 0.668 | 0.728 | 0.614 |
| HOP-62 | 0.793 |  | 0.697 | 0.624 | 0.446 | 0.319 |  | 0.618 | 0.399 | 0.452 | 0.418 |  | 0.741 | 0.612 | 0.57 | 0.817 |  | 0.842 | 0.812 | 0.666 |
| NCI-H322M | 0.553 | 0.499 | 0.385 | 0.435 | 0.446 | 0.762 | 0.709 | 0.702 | 0.599 | 0.445 | 1.27 | 1.07 | 1.07 | 1.01 | 0.785 | 0.949 | 0.883 | 0.858 | 0.813 | 0.697 |
| NCI-H441 | 0.56 | 0.394 | 0.407 | 0.405 | 0.213 | 0.657 | 0.449 | 0.45 | 0.452 | 0.298 |  | 0.365 | 0.446 | 0.558 | 0.367 | 0.685 | 0.593 | 0.474 | 0.546 | 0.433 |
| H3255 | 0.597 | 0.49 | 0.405 | 0.469 | 0.382 | 0.646 | 0.547 | 0.458 | 0.493 | 0.373 | 0.912 | 0.789 | 0.624 | 0.641 | 0.317 | 1.03 | 0.688 | 0.672 | 0.689 | 0.451 |
| NCI-H1666 | 0.831 | 0.672 | 0.682 | 0.747 | 0.471 | 0.769 | 0.708 | 0.705 | 0.664 | 0.708 | 0.924 | 0.787 | 0.709 | 0.599 | 0.429 | 1.09 | 0.895 | 0.632 | 0.552 | 0.621 |
| NCI-H661 | 0.77 | 0.552 | 0.464 | 0.354 | 0.313 | 0.731 | 0.636 | 0.583 | 0.467 | 0.44 | 0.874 | 0.584 | 0.588 | 0.649 | 0.521 | 0.957 | 0.779 | 0.674 | 0.694 | 0.556 |
| LU99A | 0.305 | 0.274 | 0.221 | 0.238 | 0.223 | 0.24 |  | 0.281 | 0.26 | 0.271 | 0.976 | 0.935 | 1 | 1.09 | 0.67 | 0.636 | 0.559 | 0.496 | 0.428 | 0.389 |
| HCC-15 | 0.677 |  | 0.549 | 0.54 | 0.426 | 0.788 |  | 0.626 | 0.651 | 0.598 | 1.1 |  | 0.929 | 0.833 | 0.737 | 0.811 |  | 0.725 | 0.687 | 0.63 |
| NCI-H1355 | 0.45 | 0.359 | 0.33 | 0.282 | 0.24 | 0.796 | 0.734 | 0.673 | 0.65 | 0.621 | 1.14 |  | 1.17 | 1.01 | 0.723 | 1.13 |  | 0.886 | 0.875 | 0.682 |
